Reference: ChEMBL document CHEMBL5465560, “Selectivity Literature for EUbOPEN Chemogenomic Library” (2024)
Blank lines part the entries; values can stand above or below the compound they belong to.

Tests used:
[1] = molecular target: Calcium/calmodulin-dependent protein kinase type 1 (Homo sapiens) (UniProt Q14012); conditions: at 10 µM
[2] = molecular target: Citron Rho-interacting kinase (Homo sapiens) (UniProt O14578); assay: Selectivity interaction (KinomeScan (DiscoverX)) EUB0000618a CIT; conditions: at 10 µM
Chain of Citron Rho-interacting kinase (Homo sapiens) (O14578 whole entry): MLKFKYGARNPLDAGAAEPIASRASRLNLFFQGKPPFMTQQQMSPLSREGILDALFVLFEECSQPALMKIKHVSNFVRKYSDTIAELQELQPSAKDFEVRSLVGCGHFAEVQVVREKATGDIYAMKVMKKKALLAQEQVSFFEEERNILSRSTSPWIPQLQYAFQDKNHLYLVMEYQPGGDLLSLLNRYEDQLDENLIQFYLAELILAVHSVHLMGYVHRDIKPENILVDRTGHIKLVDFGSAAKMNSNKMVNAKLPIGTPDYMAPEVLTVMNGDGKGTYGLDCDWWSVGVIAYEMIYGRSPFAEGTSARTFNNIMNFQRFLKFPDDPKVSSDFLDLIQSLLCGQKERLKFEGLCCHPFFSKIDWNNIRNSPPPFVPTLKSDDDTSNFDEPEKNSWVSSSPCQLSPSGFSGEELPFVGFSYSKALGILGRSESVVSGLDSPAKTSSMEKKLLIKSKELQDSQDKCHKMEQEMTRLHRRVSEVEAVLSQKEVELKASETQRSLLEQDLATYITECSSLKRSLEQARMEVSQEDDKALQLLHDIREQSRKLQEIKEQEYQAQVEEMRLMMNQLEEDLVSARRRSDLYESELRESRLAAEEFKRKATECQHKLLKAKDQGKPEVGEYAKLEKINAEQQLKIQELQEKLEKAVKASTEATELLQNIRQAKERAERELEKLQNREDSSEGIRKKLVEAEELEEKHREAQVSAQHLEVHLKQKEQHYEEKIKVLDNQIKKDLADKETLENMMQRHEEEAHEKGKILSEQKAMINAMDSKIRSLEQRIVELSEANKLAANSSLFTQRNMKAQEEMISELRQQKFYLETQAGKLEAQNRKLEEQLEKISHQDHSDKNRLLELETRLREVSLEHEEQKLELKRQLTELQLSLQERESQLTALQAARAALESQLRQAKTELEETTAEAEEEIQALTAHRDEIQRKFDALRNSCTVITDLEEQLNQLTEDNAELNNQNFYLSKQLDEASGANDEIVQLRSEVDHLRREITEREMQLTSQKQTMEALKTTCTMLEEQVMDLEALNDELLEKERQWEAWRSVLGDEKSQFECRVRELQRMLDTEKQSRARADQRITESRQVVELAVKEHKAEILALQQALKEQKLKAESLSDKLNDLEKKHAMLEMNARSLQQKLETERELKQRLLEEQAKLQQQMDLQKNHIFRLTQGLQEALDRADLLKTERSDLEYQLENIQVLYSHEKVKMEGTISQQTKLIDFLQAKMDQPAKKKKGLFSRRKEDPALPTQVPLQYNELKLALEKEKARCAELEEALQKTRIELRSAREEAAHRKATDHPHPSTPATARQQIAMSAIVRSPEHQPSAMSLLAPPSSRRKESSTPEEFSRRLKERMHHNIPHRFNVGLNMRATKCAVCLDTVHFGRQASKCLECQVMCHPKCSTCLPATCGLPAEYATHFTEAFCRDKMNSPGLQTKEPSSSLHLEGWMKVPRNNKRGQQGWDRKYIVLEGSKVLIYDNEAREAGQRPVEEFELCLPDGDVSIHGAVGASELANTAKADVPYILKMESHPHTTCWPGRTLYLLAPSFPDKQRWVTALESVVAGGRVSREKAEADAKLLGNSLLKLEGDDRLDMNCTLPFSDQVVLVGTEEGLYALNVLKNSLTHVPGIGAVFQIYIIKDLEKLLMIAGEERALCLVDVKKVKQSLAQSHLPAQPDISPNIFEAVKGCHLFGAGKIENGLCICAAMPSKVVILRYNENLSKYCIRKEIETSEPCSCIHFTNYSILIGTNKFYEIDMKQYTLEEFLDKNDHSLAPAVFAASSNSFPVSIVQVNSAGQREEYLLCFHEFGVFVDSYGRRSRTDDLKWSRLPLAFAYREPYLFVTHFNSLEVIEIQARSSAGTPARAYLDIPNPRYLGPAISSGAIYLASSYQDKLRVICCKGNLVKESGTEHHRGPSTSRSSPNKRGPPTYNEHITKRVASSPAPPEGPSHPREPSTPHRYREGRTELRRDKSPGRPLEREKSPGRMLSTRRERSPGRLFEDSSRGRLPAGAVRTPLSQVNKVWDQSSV

[3] = molecular target: SRSF protein kinase 3 (Homo sapiens) (UniProt Q9UPE1); assay: Selectivity interaction (SelectScreen profiling (Invitrogen)) EUB0000607a SRPK3; conditions: at 2 µM
[4] = molecular target: T1, Serine/threonine-protein kinase TAO3 (Homo sapiens) (UniProt Q9H2K8); assay: Selectivity interaction (KinomeScan (DiscoverX)) EUB0000607a TAOK3; conditions: at 10 µM
T1 sequence (whole entry): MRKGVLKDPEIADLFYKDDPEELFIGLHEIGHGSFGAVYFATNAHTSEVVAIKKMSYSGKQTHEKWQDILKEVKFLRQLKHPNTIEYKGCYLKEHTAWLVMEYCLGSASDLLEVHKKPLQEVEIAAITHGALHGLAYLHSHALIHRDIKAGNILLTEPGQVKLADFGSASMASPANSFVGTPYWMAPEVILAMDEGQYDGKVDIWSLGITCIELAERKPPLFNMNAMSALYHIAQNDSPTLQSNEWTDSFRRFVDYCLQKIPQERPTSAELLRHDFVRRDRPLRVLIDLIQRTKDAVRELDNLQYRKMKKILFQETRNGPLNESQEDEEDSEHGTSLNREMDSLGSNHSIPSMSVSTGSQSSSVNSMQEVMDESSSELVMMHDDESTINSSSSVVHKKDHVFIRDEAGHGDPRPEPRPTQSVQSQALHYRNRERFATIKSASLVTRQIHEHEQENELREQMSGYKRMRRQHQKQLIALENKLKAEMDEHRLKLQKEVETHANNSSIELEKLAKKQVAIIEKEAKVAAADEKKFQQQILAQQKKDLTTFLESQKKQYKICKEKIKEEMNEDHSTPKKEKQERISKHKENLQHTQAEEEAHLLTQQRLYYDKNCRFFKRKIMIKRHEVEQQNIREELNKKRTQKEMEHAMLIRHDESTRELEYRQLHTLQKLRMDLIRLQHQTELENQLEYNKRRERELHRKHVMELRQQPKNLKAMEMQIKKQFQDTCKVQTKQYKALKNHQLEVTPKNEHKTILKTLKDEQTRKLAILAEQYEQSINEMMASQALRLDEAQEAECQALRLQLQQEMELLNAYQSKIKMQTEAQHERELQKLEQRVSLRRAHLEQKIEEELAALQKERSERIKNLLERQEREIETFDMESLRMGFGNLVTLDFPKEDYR

[5] = molecular target: Serine/threonine-protein kinase 10 (Homo sapiens) (UniProt O94804); assay: Selectivity interaction (ActivX KiNativ screen (ex vivo kinase selectivity in human PBMCs)) EUB0001619a STK10; format: cell-based; conditions: PBMC, at 1 µM
[6] = molecular target: T2, Serine/threonine-protein kinase 17B (Homo sapiens) (UniProt O94768); conditions: at 10 µM
T2 sequence (whole entry): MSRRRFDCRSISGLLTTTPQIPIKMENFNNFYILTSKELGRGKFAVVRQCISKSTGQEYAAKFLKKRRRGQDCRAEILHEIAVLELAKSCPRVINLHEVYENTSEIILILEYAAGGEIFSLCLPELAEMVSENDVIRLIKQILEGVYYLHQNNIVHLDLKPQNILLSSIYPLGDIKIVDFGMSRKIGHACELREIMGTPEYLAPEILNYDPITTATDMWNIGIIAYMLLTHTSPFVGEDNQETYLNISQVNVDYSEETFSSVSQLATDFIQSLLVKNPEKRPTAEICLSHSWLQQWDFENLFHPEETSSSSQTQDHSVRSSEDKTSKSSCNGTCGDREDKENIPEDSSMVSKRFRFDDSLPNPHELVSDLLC

[7] = molecular target: RAC-beta serine/threonine-protein kinase (Homo sapiens) (UniProt P31751); assay: Selectivity interaction (Kinase panel (Invitrogen)) EUB0000639a AKT2; conditions: at 200 nM
Chain of RAC-beta serine/threonine-protein kinase (Homo sapiens) (P31751 whole entry): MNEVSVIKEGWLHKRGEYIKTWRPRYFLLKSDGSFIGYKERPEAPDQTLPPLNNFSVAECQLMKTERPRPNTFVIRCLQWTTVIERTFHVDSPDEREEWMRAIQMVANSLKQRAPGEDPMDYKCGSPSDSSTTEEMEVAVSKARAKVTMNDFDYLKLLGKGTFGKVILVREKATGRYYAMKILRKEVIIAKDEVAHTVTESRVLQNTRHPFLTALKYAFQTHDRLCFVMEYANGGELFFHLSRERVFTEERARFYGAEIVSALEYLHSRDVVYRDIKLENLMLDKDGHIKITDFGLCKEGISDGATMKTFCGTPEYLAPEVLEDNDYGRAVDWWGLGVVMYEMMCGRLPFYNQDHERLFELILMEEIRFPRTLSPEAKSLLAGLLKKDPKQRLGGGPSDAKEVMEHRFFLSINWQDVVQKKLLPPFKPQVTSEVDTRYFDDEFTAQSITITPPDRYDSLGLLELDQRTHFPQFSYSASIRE

[8] = molecular target: Receptor tyrosine-protein kinase erbB-3 (Homo sapiens) (UniProt P21860); assay: Selectivity interaction (KinomeScan (DiscoverX)) EUB0000229b ERBB3; conditions: at 10 µM
[9] = molecular target: T3, Ephrin type-A receptor 3 (Homo sapiens) (UniProt P29320); assay: Selectivity interaction (KinomeScan (DiscoverX)) EUB0000229b EPHA3; conditions: at 10 µM
T3 sequence (whole entry): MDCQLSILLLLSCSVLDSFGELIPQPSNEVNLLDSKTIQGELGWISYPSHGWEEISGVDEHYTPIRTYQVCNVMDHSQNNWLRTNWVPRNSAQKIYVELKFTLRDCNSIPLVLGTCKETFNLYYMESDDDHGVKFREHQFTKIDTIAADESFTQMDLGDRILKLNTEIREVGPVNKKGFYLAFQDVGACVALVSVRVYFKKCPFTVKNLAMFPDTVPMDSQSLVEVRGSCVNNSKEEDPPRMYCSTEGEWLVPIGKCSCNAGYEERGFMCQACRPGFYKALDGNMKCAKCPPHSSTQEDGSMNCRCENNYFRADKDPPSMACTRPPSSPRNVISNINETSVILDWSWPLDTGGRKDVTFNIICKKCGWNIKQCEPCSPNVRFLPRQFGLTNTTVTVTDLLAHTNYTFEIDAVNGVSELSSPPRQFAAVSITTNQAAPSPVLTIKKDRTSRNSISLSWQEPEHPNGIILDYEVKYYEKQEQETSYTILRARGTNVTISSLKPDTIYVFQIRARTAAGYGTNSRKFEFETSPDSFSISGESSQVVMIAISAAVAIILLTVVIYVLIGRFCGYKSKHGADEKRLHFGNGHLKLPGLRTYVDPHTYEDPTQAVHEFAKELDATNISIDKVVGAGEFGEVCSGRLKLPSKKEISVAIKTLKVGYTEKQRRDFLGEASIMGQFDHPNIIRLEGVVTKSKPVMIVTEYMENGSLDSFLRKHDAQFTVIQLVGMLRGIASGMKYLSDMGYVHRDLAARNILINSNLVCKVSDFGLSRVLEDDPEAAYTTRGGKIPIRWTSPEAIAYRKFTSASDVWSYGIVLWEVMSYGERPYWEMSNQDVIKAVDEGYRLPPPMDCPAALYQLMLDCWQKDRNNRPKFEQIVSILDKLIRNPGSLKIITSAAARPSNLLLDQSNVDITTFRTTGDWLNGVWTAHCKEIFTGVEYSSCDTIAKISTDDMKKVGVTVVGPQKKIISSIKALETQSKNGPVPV

[10] = molecular target: Casein kinase II subunit alpha (Homo sapiens, UniProt P68400); assay: Selectivity interaction (ProQinase) EUB0000171b CSNK2A1
Chain of Casein kinase II subunit alpha (P68400 whole entry, looked up): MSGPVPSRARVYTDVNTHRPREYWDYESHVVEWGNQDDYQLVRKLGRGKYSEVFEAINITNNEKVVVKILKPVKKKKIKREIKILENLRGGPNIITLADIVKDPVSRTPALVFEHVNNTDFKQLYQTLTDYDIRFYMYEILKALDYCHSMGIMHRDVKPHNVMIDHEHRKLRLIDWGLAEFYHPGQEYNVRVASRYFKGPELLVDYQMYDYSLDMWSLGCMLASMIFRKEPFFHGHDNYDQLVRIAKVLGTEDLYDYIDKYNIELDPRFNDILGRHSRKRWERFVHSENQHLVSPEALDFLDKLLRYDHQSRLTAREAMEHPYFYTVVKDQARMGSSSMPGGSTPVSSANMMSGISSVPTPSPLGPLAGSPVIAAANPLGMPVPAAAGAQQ

[11] = molecular target: Mitogen-activated protein kinase 6 (Homo sapiens) (UniProt Q16659); assay: Selectivity interaction (KinomeScan (DiscoverX)) EUB0000092b MAPK6; conditions: at 10 µM
Chain of Mitogen-activated protein kinase 6 (Homo sapiens) (Q16659 whole entry): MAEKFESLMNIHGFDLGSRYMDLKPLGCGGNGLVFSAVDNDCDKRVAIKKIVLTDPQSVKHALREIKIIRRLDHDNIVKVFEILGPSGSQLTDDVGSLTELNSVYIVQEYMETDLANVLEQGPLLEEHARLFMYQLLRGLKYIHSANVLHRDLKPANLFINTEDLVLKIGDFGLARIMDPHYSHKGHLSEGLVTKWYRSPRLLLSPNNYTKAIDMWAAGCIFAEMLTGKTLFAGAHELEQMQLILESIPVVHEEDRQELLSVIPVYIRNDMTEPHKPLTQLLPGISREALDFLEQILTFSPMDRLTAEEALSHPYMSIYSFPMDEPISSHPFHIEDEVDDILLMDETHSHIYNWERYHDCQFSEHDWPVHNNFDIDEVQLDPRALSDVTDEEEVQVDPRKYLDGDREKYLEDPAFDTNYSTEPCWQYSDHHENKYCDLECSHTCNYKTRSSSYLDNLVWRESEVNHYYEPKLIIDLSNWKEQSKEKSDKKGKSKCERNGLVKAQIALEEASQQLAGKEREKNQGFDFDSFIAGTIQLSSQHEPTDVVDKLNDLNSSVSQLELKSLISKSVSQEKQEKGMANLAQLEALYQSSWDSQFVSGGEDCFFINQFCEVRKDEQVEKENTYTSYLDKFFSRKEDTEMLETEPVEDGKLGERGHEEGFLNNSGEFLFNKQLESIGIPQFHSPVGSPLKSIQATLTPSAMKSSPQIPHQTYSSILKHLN

[12] = molecular target: CDK3/Cyclin E (Homo sapiens) (UniProt P24864+Q00526); assay: Selectivity interaction (LanthaScreen Eu Kinase Binding Assay) EUB0001632a CDK3; format: protein-complex assay; conditions: at 10 µM
Chain of CDK3/Cyclin E (Homo sapiens) (P24864 whole entry, looked up): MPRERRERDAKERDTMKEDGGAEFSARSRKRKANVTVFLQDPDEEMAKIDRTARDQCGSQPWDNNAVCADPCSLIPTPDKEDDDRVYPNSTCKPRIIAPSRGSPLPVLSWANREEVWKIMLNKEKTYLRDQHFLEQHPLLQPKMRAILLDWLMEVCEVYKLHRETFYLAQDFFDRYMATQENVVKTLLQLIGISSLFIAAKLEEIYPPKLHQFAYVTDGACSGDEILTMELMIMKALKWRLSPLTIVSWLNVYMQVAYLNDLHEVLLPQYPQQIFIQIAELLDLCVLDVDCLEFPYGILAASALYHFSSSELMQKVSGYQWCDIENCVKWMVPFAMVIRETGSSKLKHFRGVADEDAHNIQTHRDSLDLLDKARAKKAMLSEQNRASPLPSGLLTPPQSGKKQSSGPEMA
Chain of CDK3/Cyclin E (Homo sapiens) (Q00526 whole entry, looked up): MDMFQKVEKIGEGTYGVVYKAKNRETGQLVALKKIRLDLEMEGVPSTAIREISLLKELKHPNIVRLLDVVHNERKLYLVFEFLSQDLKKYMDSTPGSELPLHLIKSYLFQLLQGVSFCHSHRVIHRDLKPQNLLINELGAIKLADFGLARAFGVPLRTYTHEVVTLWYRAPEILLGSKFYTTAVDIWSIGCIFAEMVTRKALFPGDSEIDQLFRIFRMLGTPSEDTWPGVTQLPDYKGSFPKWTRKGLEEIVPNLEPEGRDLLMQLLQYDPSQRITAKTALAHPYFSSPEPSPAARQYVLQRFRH

Chain of Calcium/calmodulin-dependent protein kinase type 1 (Homo sapiens) (Q14012 whole entry, looked up): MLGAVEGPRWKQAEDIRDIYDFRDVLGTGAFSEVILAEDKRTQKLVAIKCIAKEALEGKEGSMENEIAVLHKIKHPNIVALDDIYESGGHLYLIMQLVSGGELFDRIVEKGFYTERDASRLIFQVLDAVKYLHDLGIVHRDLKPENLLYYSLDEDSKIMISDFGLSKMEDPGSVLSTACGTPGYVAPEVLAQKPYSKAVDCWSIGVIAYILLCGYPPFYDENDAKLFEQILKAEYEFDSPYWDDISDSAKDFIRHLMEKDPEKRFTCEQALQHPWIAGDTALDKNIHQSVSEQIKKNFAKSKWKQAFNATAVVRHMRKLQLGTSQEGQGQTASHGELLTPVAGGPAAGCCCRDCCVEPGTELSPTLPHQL

% of control [1]: 100%
SMILES: CCN(CC)CCCCNc1ncc2cc(-c3cc(OC)cc(OC)c3)c(NC(=O)NC(C)(C)C)nc2n1

SMILES: O[C@H]1CC[C@H](Nc2ncc3nc(Nc4c(F)cc(F)cc4F)n([C@H]4CCOC4)c3n2)CC1
% of control [2]: 96%

SMILES: CNC(=O)Nc1ccc(-c2nc(N3CC4CCC(C3)O4)c3cnn(C4CCC5(CC4)OCCO5)c3n2)cc1
% of inhibition [3]: 6%
% of control [4]: 90%

SMILES: N#Cc1cccc(-c2c[nH]c3ncnc(N4CCOCC4)c23)c1
% of inhibition [5]: 54%

SMILES: Cc1cc([C@@H](C)Nc2ccccc2C(=O)O)c2nc(N3CCOCC3)cc(=O)n2c1 [AZD-6482]
% of control [6]: 100%

% of inhibition [7]: 4.03%
SMILES: CC[C@@H]1[C@H](F)C(=O)N[C@@H]1COc1nccc2cc(C(N)=O)c(OC)cc12 [ZIMLOVISERTIB]

SMILES: COc1cc(N(C)c2ccnc3ccc(C(F)(F)F)cc23)cc(OC)c1OC
% binding [8]: 93%
% binding [9]: 93%

% of control ([10]; at 1 µM): 92%
% of control ([10]; at 5 µM): 75%
SMILES: C=CC(=O)Nc1cccc(C(=O)Nc2ccc(Nc3cc(-c4[nH]c(SC)nc4C)ccn3)cc2)c1

SMILES: CCC(=O)N1CCN(c2ccc(-n3c(=O)ccc4cnc5ccc(-c6cnc7ccccc7c6)cc5c43)cc2C(F)(F)F)CC1
% of control [11]: 1.8%

% of inhibition [12]: -151%
SMILES: Cn1cc(-n2cnc3c(NCc4nc5cc(Cl)c(Cl)cc5[nH]4)nc(N4CCOCC4)nc32)cn1
